In patent publication US20230167073A1 (Teijin Pharma Limited, priority 2020, published 2023):

Each compound was assayed against T1, Human TRPC6 (Homo sapiens, UniProt Q9Y210) (assay: Evaluation of TRPC6 channel inhibitory activity (1), FLIPR Calcium 5 Assay Kit, OAG stimulation (Compound Nos. 1-1293)). Conditions: Human TRPC6 stably-expressing cells, OAG 30 μM, FLIPR Calcium 5 Assay Kit; read-out: Inhibitory activity (pIC50 class) (converted).
T1 construct: expressed in transfected cells
T1 sequence (Q9Y210 1-931): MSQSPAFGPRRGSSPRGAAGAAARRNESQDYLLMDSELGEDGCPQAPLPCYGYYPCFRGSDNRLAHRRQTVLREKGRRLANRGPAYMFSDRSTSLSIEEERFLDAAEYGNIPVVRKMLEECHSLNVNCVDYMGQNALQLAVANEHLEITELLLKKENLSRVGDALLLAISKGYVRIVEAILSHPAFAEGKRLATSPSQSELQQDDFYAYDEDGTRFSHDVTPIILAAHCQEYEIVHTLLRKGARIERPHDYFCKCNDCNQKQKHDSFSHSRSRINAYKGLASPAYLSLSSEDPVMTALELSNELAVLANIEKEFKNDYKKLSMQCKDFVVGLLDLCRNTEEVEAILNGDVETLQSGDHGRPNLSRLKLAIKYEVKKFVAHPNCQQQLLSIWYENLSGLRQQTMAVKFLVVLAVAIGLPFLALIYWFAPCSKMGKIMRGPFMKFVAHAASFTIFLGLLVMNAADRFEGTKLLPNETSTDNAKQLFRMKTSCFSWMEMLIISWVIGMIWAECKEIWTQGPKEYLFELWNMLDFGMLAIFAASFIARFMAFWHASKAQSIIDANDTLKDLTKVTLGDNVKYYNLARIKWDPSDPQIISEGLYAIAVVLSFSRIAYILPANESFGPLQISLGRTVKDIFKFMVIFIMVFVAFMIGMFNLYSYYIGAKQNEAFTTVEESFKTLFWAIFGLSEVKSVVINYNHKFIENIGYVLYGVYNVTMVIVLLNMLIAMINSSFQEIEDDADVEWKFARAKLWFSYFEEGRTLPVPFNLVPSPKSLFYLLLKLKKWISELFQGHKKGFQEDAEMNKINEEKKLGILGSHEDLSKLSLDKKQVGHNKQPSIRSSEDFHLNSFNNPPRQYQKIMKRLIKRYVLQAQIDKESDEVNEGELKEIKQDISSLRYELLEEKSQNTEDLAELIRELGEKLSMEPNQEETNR
Format: cell-based
Summary of the method: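 Readout is pIC50 from four-parameter logistic fitting of inhibition of the OAG-evoked (30 μM final) fluorescence calcium signal. Human TRPC6 stable cells are dye-loaded with probenecid, and compound is applied 20 min ahead of agonist.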

Row | IC50 [µM] | SMILES
1 | < 0.01 | CCN(CC)c1cc(Oc2cc(F)ccc2-c2ncc(CN)cn2)n(C)n1 [compound 992, 5-[2-[5-(aminomethyl)pyrimidin-2-yl]-5-fluorophenoxy]-N,N-diethyl-1-methylpyrazole-3-amine]
2 | 0.01 to 1 | CN(CC(F)F)c1cc(Oc2cc(F)ccc2-c2ncc(CN)cn2)n(C)n1 [compound 993, 5-[2-[5-(aminomethyl)pyrimidin-2-yl]-5-fluorophenoxy]-N-(2,2-difluoroethyl)-N,1-dimethylpyrazole-3-amine]
3 | 0.01 to 1 | CCN(CC(F)F)c1cc(Oc2cc(F)ccc2-c2ncc(CN)cn2)n(C)n1 [compound 994, 5-[2-[5-(aminomethyl)pyrimidin-2-yl]-5-fluorophenoxy]-N-(2,2-difluoroethyl)-N-ethyl-1 methylpyrazole-3-amine]
4 | 0.01 to 1 | Cn1nc(N2CCCC2)cc1Oc1cc(F)ccc1-c1ncc(CN)cn1 [compound 995, [2-[4-fluoro-2-(2-methyl-5-pyrrolidin-1-ylpyrazol-3-yl)oxyphenyl]pyrimidin-5-yl]methanamine]
5 | < 0.01 | Cn1nc(N2CCCC2)cc1Oc1cc(F)ccc1-c1ccc(CN)cn1 [compound 996, [6-[4-fluoro-2-(2-methyl-5-pyrrolidin-1-ylpyrazol-3-yl)oxyphenyl]pyridin-3-yl]methanamine]
6 | 0.01 to 1 | CN(C)c1cc(Oc2cc(F)ccc2-c2ncc(CN)cn2)n(C)n1 [compound 997, 5-[2-[5-(aminomethyl)pyrimidin-2-yl]-5-fluorophenoxy]-N,N,1 trimethylpyrazole-3-amine]
7 | 0.01 to 1 | CN(C)c1cc(Oc2cc(F)ccc2-c2ccc(CN)cn2)n(C)n1 [compound 998, 5-[2-[5-(aminomethyl)pyridin-2-yl]-5-fluorophenoxy]-N,N,1-trimethylpyrazole-3-amine]
8 | 0.01 to 1 | CN(C)c1cc(Oc2cc(F)ccc2-c2ncc(CCN)cn2)n(C)n1 [compound 999, 5-[2-[5-(2-aminoethyl)pyrimidin-2-yl]-5-fluorophenoxy]-N,N,1-trimethylpyrazole-3-amine]
9 | < 0.01 | CN(C)c1cc(Oc2cc(F)ccc2-c2ccc(CCN)cn2)n(C)n1 [compound 1000, 5-[2-[5-(2-aminoethyl)pyridin-2-yl]-5-fluorophenoxy]-N,N,1-trimethylpyrazole-3-amine]
10 | < 0.01 | Cc1nc(Oc2cc(F)ccc2-c2ccc(CCN)cn2)cc(N2CCOCC2)n1 [compound 1001, 2-[6-[4-fluoro-2-(2-methyl-6-morpholin-4-ylpyrimidin-4-yl)oxyphenyl]pyridin-3-yl]ethanamine]
11 | > 1 | Cc1nc(Oc2cc(F)ccc2-c2ncc(CN)cn2)cc(N2CCOCC2)n1 [compound 1002, [2-[4-fluoro-2-(2-methyl-6-morpholin-4-ylpyrimidin-4-yl)oxyphenyl]pyrimidin-5-yl]methanamine]
12 | 0.01 to 1 | Cc1nc(Oc2cc(F)ccc2-c2ccc(CN)cn2)cc(N2CCOCC2)n1 [compound 1003, [6-[4-fluoro-2-(2-methyl-6-morpholin-4-ylpyrimidin-4-yl)oxyphenyl]pyridin-3-yl]methanamine]
13 | 0.01 to 1 | NCCc1cnc(-c2ccc(F)cc2Oc2cnn(-c3ccccn3)c2)nc1 [compound 1004, 2-[2-[4-fluoro-2-(1-pyridin-2-ylpyrazol-4-yl)oxyphenyl]pyrimidin-5-yl]ethanamine]
14 | > 1 | NCCc1cnc(-c2ccc(F)cc2Oc2cnn(CC(F)F)c2)nc1 [compound 1005, 2-[2-[2-[1-(2,2-difluoroethyl)pyrazol-4-yl]oxy-4-fluorophenyl]pyrimidin-5-yl]ethanamine]
15 | 0.01 to 1 | NCCc1ccc(-c2ccc(F)cc2Oc2cnnc(N3CCOCC3)c2)nc1 [compound 1006, 2-[6-[4-fluoro-2-(6-morpholin-4-ylpyridazin-4-yl)oxyphenyl]pyridin-3-yl]ethanamine]
16 | 0.01 to 1 | Cn1nc(C2CCOCC2)cc1Oc1cc(F)ccc1-c1ncc(CN)cn1 [compound 1007, [2-[4-fluoro-2-[2-methyl-5-(oxan-4-yl)pyrazol-3-yl]oxyphenyl]pyrimidin-5-yl]methanamine]
17 | 0.01 to 1 | Cn1nc(C2CCOCC2)cc1Oc1cc(F)ccc1-c1ccc(CN)cn1 [compound 1008, [6-[4-fluoro-2-[2-methyl-5-(oxan-4-yl)pyrazol-3-yl]oxyphenyl]pyridin-3-yl]methanamine]

Row | IC50 [µM] | SMILES
18 | 0.01 to 1 | Cn1nc(C2CCOCC2)cc1Oc1cc(F)ccc1-c1ncc(CCN)cn1 [compound 1009, 2-[2-[4-fluoro-2-[2-methyl-5-(oxan-4-yl)pyrazol-3-yl]oxyphenyl]pyrimidin-5-yl]ethanamine]
19 | < 0.01 | Cn1nc(C2CCOCC2)cc1Oc1cc(F)ccc1-c1ccc(CCN)cn1 [compound 1010, 2-[6-[4-fluoro-2-[2-methyl-5-(oxan-4-yl)pyrazol-3-yl]oxyphenyl]pyridin-3-yl]ethanamine]
20 | < 0.01 | CC(C)c1cc(Oc2cc(F)ccc2-c2ccc(CN)cn2)n(C)n1 [compound 1011, [6-[4-fluoro-2-(2-methyl-5-propan-2-ylpyrazol-3-yl)oxyphenyl]pyridin-3-yl]methanamine]
21 | < 0.01 | CC(C)c1cc(Oc2cc(F)ccc2-c2ncc(CN)cn2)n(C)n1 [compound 1012, [2-[4-fluoro-2-(2-methyl-5-propan-2-ylpyrazol-3-yl)oxyphenyl]pyrimidin-5-yl]methanamine]
22 | < 0.01 | CC(C)c1cc(Oc2cc(F)ccc2-c2ncc(CCN)cn2)n(C)n1 [compound 1013, 2-[2-[4-fluoro-2-(2-methyl-5-propan-2-ylpyrazol-3-yl)oxyphenyl]pyrimidin-5-yl]ethanamine]
23 | < 0.01 | CC(C)c1cc(Oc2cc(F)ccc2-c2ccc(CCN)cn2)n(C)n1 [compound 1014, 2-[6-[4-fluoro-2-(2-methyl-5-propan-2-ylpyrazol-3-yl)oxyphenyl]pyridin-3-yl]ethanamine]
24 | 0.01 to 1 | Cn1nc(C2CC2)cc1Oc1cc(F)ccc1-c1ncc(CN)cn1 [compound 1015, [2-[2-(5-cyclopropyl-2-methylpyrazol-3-yl)oxy-4-fluorophenyl]pyrimidin-5-yl]methanamine]
25 | 0.01 to 1 | Cn1nc(C2CC2)cc1Oc1cc(F)ccc1-c1ccc(CN)cn1 [compound 1016, [6-[2-(5-cyclopropyl-2-methylpyrazol-3-yl)oxy-4-fluorophenyl]pyridin-3 - yl]methanamine]
26 | < 0.01 | Cn1nc(C2CC2)cc1Oc1cc(F)ccc1-c1ncc(CCN)cn1 [compound 1017, 2-[2-[2-(5-cyclopropyl-2-methylpyrazol-3-yl)oxy-4-fluorophenyl]pyrimidin-5-yl]ethanamine]
27 | < 0.01 | Cn1nc(C2CC2)cc1Oc1cc(F)ccc1-c1ccc(CCN)cn1 [compound 1018, 2-[6-[2-(5-cyclopropyl-2-methylpyrazol-3-yl)oxy-4-fluorophenyl]pyridin-3-yl]ethanamine]
28 | 0.01 to 1 | NCCc1cnc(-c2ccc(F)cc2Oc2cnn(CC(F)(F)F)c2)nc1 [compound 1019, 2-[2-[4-fluoro-2-[1-(2,2,2-trifluoroethyl)pyrazol-4-yl]oxyphenyl]pyrimidin-5-yl]ethanamine]
29 | 0.01 to 1 | CC(C)n1cc(Oc2cc(Cl)ccc2-c2ncc(CCN)cn2)cn1 [compound 1020, 2-[2-[4-chloro-2-(1-propan-2-ylpyrazol-4-yl)oxyphenyl]pyrimidin-5-yl]ethanamine]
30 | 0.01 to 1 | CC(C)Cn1cc(Oc2cc(Cl)ccc2-c2ncc(CCN)cn2)cn1 [compound 1021, 2-[2-[4-chloro-2-[1-(2-methylpropyl)pyrazol-4-yl]oxyphenyl]pyrimidin-5-yl]ethanamine]
31 | > 1 | NCCc1cnc(-c2ccc(Cl)cc2Oc2cnn(CC(F)F)c2)nc1 [compound 1022, 2-[2-[4-chloro-2-[1-(2,2-difluoroethyl)pyrazol-4-yl]oxyphenyl]pyrimidin-5-yl]ethanamine]
32 | 0.01 to 1 | NCCc1cnc(-c2ccc(Cl)cc2Oc2cnn(CC(F)(F)F)c2)nc1 [compound 1023, 2-[2-[4-chloro-2-[1-(2,2,2-trifluoroethyl)pyrazol-4-yl]oxyphenyl]pyrimidin-5-yl]ethanamine]
33 | 0.01 to 1 | NCCc1cnc(-c2ccc(Cl)cc2Oc2cnn(-c3ccccn3)c2)nc1 [compound 1024, 2-[2-[4-chloro-2-(1-pyridin-2-ylpyrazol-4-yl)oxyphenyl]pyrimidin-5-yl]ethanamine]
34 | < 0.01 | CCc1cc(C(=O)c2cc(C#N)ccc2-c2ncc(CCN)cn2)n(C)n1 [compound 1025, 4-[5-(2-aminoethyl)pyrimidin-2-yl]-3-(5-ethyl-2-methylpyrazole-3-carbonyl)benzonitrile]
